Test results reported in article PMC10794144, “A novel antibiotic class targeting the lipopolysaccharide transporter” (Nature, 2024).
Values after ≈ are worked out from the molar mass of the structure shown. Read-outs that look alike come from different tables or passages of the source. Marks after values point to notes of the source that are not given here.

Tested on: A. baumannii
Assay: MIC, broth microdilution in CAMHB supplemented with human serum, read at 100% growth inhibition
Type: cell-based, Acinetobacter baumannii
Conditions: for MIC: read-out: MIC
Protocol: MIC determinations were performed using the broth microdilution method and in line with CLSI guidelines M07 and M100 (refs. [37],[38]). Bacterial inocula were prepared by diluting a 0.5 McFarland suspension in CAMHB or lysogeny broth (LB) specifically for A. baylyi isolates. […] MIC values of all of the tested antibiotics were read as the lowest compound concentration inhibiting bacterial growth by naked eye or beyond which the OD600 ceased to decrease.

**Q.** Which results are given for `CN1C(=O)[C@H](CCCCN)NC(=O)[C@H](CCCN)NCc2cccnc2Sc2cccc(-c3ccc(C(=O)O)cc3)c2CNC(=O)[C@@H]1Cc1c[nH]c2ccccc12` [zosurabalpin]?
**A.** MIC (Acinetobacter baumannii, isolate 1728884, 20% HS): 0.5 µg/mL (≈ 0.632 µM); MIC (Acinetobacter baumannii, isolate 1729042, 20% HS): 2 µg/mL (≈ 2.53 µM); MIC (Acinetobacter baumannii, isolate 1729043, 20% HS): 1 µg/mL (≈ 1.26 µM); MIC (Acinetobacter baumannii, isolate 1729044, 20% HS): 1 µg/mL (≈ 1.26 µM); MIC (Acinetobacter baumannii, isolate 1729049, 20% HS): 2 µg/mL (≈ 2.53 µM); MIC (Acinetobacter baumannii, isolate 1729050, 20% HS): 2 µg/mL (≈ 2.53 µM); MIC (Acinetobacter baumannii, isolate 1729052, 20% HS): 1 µg/mL (≈ 1.26 µM); MIC (Acinetobacter baumannii, isolate 1729102, 20% HS): 4 µg/mL (≈ 5.06 µM); MIC (Acinetobacter baumannii, isolate 1729123, 20% HS): 0.5 µg/mL (≈ 0.632 µM); MIC (Acinetobacter baumannii, isolate 1729351, 20% HS): 0.5 µg/mL (≈ 0.632 µM); MIC (Acinetobacter baumannii, isolate 1729352, 20% HS): 0.25 µg/mL (≈ 0.316 µM); MIC (Acinetobacter baumannii, isolate 1729353, 20% HS): 0.25 µg/mL (≈ 0.316 µM); MIC (Acinetobacter baumannii, isolate 1729358, 20% HS): 0.25 µg/mL (≈ 0.316 µM); MIC (Acinetobacter baumannii, isolate 1729362, 20% HS): 1 µg/mL (≈ 1.26 µM); MIC (Acinetobacter baumannii, isolate 1729379, 20% HS): 1 µg/mL (≈ 1.26 µM); MIC (Acinetobacter baumannii, isolate 1864609, 20% HS): 0.06 µg/mL (≈ 0.0759 µM); MIC (Acinetobacter baumannii, isolate 1864833, 20% HS): 0.5 µg/mL (≈ 0.632 µM); MIC (Acinetobacter baumannii, isolate 1865057, 20% HS): 0.25 µg/mL (≈ 0.316 µM); MIC (Acinetobacter baumannii, isolate 1865083, 20% HS): 0.5 µg/mL (≈ 0.632 µM); MIC (Acinetobacter baumannii, isolate 1865084, 20% HS): 0.5 µg/mL (≈ 0.632 µM); MIC (Acinetobacter baumannii, isolate 1865085, 20% HS): 0.5 µg/mL (≈ 0.632 µM); MIC (Acinetobacter baumannii, isolate 1865086, 20% HS): 0.5 µg/mL (≈ 0.632 µM); MIC (Acinetobacter baumannii, isolate 1865266, 20% HS): 1 µg/mL (≈ 1.26 µM); MIC (Acinetobacter baumannii, isolate 1865269, 20% HS): 0.25 µg/mL (≈ 0.316 µM); MIC (Acinetobacter baumannii, isolate 1865273, 20% HS): 0.06 µg/mL (≈ 0.0759 µM); MIC (Acinetobacter baumannii, isolate 1865274, 20% HS): 0.25 µg/mL (≈ 0.316 µM); MIC (Acinetobacter baumannii, isolate 1865386, 20% HS): 0.125 µg/mL (≈ 0.158 µM); MIC (Acinetobacter baumannii, isolate 1865387, 20% HS): 0.125 µg/mL (≈ 0.158 µM); MIC (Acinetobacter baumannii, isolate 1865494, 20% HS): 0.06 µg/mL (≈ 0.0759 µM); MIC (Acinetobacter baumannii, isolate 1865714, 20% HS): 0.25 µg/mL (≈ 0.316 µM); MIC (Acinetobacter baumannii, isolate 1866281, 20% HS): 0.125 µg/mL (≈ 0.158 µM); MIC (Acinetobacter baumannii, isolate 1866282, 20% HS): 0.06 µg/mL (≈ 0.0759 µM); MIC (Acinetobacter baumannii, isolate 1866283, 20% HS): 0.03 µg/mL (≈ 0.0379 µM); MIC (Acinetobacter baumannii, isolate 1866370, 20% HS): 0.25 µg/mL (≈ 0.316 µM); MIC (Acinetobacter baumannii, isolate 1866376, 20% HS): 0.25 µg/mL (≈ 0.316 µM); MIC (Acinetobacter baumannii, isolate 1868315, 20% HS): 0.5 µg/mL (≈ 0.632 µM); MIC (Acinetobacter baumannii, isolate 1869068, 20% HS): 1 µg/mL (≈ 1.26 µM); MIC (Acinetobacter baumannii, isolate 1869084, 20% HS): 4 µg/mL (≈ 5.06 µM); MIC (Acinetobacter baumannii, isolate 1869085, 20% HS): 1 µg/mL (≈ 1.26 µM); MIC (Acinetobacter baumannii, isolate 1869086, 20% HS): 1 µg/mL (≈ 1.26 µM); MIC (Acinetobacter baumannii, isolate 1869087, 20% HS): 1 µg/mL (≈ 1.26 µM); MIC (Acinetobacter baumannii, isolate 1869088, 20% HS): 0.5 µg/mL (≈ 0.632 µM); MIC (Acinetobacter baumannii, isolate 1869089, 20% HS): 0.25 µg/mL (≈ 0.316 µM); MIC (Acinetobacter baumannii, isolate 1869090, 20% HS): 0.25 µg/mL (≈ 0.316 µM); MIC (Acinetobacter baumannii, isolate 1869091, 20% HS): 0.25 µg/mL (≈ 0.316 µM); MIC (Acinetobacter baumannii, isolate 1869093, 20% HS): 0.25 µg/mL (≈ 0.316 µM); MIC (Acinetobacter baumannii, isolate 1869173, 20% HS): 0.25 µg/mL (≈ 0.316 µM); MIC (Acinetobacter baumannii, isolate 1870044, 20% HS): 0.03 µg/mL (≈ 0.0379 µM); MIC (Acinetobacter baumannii, isolate 1870131, 20% HS): 1 µg/mL (≈ 1.26 µM); MIC (Acinetobacter baumannii, isolate 1870152, 20% HS): 0.25 µg/mL (≈ 0.316 µM); MIC (Acinetobacter baumannii, isolate 1870171, 20% HS): 0.5 µg/mL (≈ 0.632 µM); MIC (Acinetobacter baumannii, isolate 1871948, 20% HS): 1 µg/mL (≈ 1.26 µM); MIC (Acinetobacter baumannii, isolate 1872001, 20% HS): 0.25 µg/mL (≈ 0.316 µM); MIC (Acinetobacter baumannii, isolate 1872360, 20% HS): 4 µg/mL (≈ 5.06 µM); MIC (Acinetobacter baumannii, isolate 1887389, 20% HS): 0.06 µg/mL (≈ 0.0759 µM); MIC (Acinetobacter baumannii, isolate 1887397, 20% HS): 0.06 µg/mL (≈ 0.0759 µM); MIC (Acinetobacter baumannii, isolate 1887497, 20% HS): 0.06 µg/mL (≈ 0.0759 µM); MIC (Acinetobacter baumannii, isolate 1887498, 20% HS): 0.06 µg/mL (≈ 0.0759 µM); MIC (Acinetobacter baumannii, isolate 1897312, 20% HS): 0.03 µg/mL (≈ 0.0379 µM); MIC (Acinetobacter baumannii, isolate 1897314, 20% HS): 0.25 µg/mL (≈ 0.316 µM); MIC (Acinetobacter baumannii, isolate 1897317, 20% HS): 0.25 µg/mL (≈ 0.316 µM); MIC (Acinetobacter baumannii, isolate 1914727, 20% HS): 0.5 µg/mL (≈ 0.632 µM); MIC (Acinetobacter baumannii, isolate 1914733, 20% HS): 0.06 µg/mL (≈ 0.0759 µM); MIC (Acinetobacter baumannii, isolate 1930837, 20% HS): 0.06 µg/mL (≈ 0.0759 µM); MIC (Acinetobacter baumannii, isolate 1930840, 20% HS): 0.125 µg/mL (≈ 0.158 µM); MIC (Acinetobacter baumannii, mutations in adeRS): 1 to 8 µg/mL (≈ 1.26 to 10.1 µM); MIC90 (Acinetobacter baumannii, 129 clinical isolates, CAMHB + 20% HS, n = 1): 1 µg/mL; Fold MIC increase (AdeR A91V vs parental): >4 - 32; Fold MIC increase (AdeS D128E vs parental): 2; Fold MIC increase (AdeS G160C vs parental): 4; Fold MIC increase (AdeS G318S vs parental): 8; Fold MIC increase (AdeS L197F vs parental): 4; Fold MIC increase (AdeS R108S vs parental): 4; Fold MIC increase (AdeS R152K vs parental): 4; Fold MIC increase (AdeS T66S vs parental): 4; Fold MIC increase (LptF (G326_E327)del vs parental): 64 - 128 ^a; Fold MIC increase (LptF (I319_K320)N vs parental): >256; Fold MIC increase (LptF (K320)del vs parental): >256; Fold MIC increase (LptF (K320)dup vs parental): 256; Fold MIC increase (LptF (V314_L315)del vs parental): 128; Fold MIC increase (LptF A318E vs parental): 32; Fold MIC increase (LptF E58G vs parental, CAMHB + 20% HS): 8; Fold MIC increase (LptF E58K vs parental): >256; Fold MIC increase (LptF E249K vs parental): 32 - 256 ^a; Fold MIC increase (LptF I317L vs parental): 32 - 64; Fold MIC increase (LptF I317N vs parental): >256; Fold MIC increase (LptF I317S vs parental): 256; Fold MIC increase (LptF I317T vs parental): 32; Fold MIC increase (LptF I323K vs parental): 64 - 128 ^a; Fold MIC increase (LptF I323R vs parental): 4 - 256 ^a; Fold MIC increase (LptF K320E vs parental): 256; Fold MIC increase (LptF K320N vs parental): 64; Fold MIC increase (LptF K320Q vs parental): 32; Fold MIC increase (LptF K320T vs parental): 16; Fold MIC increase (LptF L62H vs parental): 64 - 256 ^a; Fold MIC increase (LptF R322C vs parental): 32 - 128 ^a; Fold MIC increase (LptF R322G vs parental): 8 - 16 ^a; Fold MIC increase (LptF R322L vs parental): 32 - 64 ^a; Fold MIC increase (LptF R322S vs parental): 16; Fold MIC increase (LptF T121K vs parental): 8; Fold MIC increase (LptF W271R vs parental): 4; Fold MIC increase (LptF W271S vs parental): 16; Fold MIC increase (LptG G40D vs parental): 8; Fold MIC increase (LptG L36Q vs parental): 32; Fold MIC increase (LpxM IS66 vs parental): 32; Fold MIC increase (LpxM K285N vs parental): 4; Fold MIC increase (LpxM L44stop vs parental): 32; Fold MIC increase (LpxM W78stop vs parental): 32; Fold MIC increase (adeS ISAba1 vs parental): 4 - 32 ^a; Fold MIC increase (deletion of AGTGTGGAGTA 66nt upstream of adeR vs parental): 8; Fold MIC increase (lpxM ISAba1 vs parental): 32 - 64 ^a
